Where “and” joins values, the source holds several entries; their conditions need not be identical. Equal entries are not always repeated.
Legend:
[1] = test system: anti-albiglutide antibodies; assay: Phase 2 trial: immunogenicity, anti-albiglutide antibodies via ELISA; format: in vivo, human
Experimental: Adverse event assessments and safety analyses (including electrocardiograms, vital sign measurements and physical exams) were conducted throughout the study. Nausea and vomiting were monitored for occurrence and duration. Immunogenicity assessments were performed with samples taken at baseline and at weeks 1, 4, 8, and 12, and 16. Samples were screened for anti-albiglutide antibodies via ELISA (Matthews, et al. J Clin Endocrinol Metab. 2008; DOI: 10.1210/jc.2008-1518). […] Population PK analysis was performed using a nonlinear mixed-effect modelling approach with NONMEM software (Icon Development Solutions, Ellicott City, Md.).
An 11-week post-treatment washout period was included to monitor development of anti-albiglutide antibodies. […] The appearance of anti-albiglutide antibodies was largely transient, with 1 subject remaining positive at week 27. […] There was no obvious association between presence of anti-albiglutide antibodies and either efficacy or safety.

type 2 diabetic subjects [2] = test system: type 2 diabetic subjects; parameters: species or system human; conditions: in vivo
Experimental: Adverse event assessments and safety analyses (including electrocardiograms, vital sign measurements and physical exams) were conducted throughout the study. Nausea and vomiting were monitored for occurrence and duration. Immunogenicity assessments were performed with samples taken at baseline and at weeks 1, 4, 8, and 12, and 16. […] Population PK analysis was performed using a nonlinear mixed-effect modelling approach with NONMEM software (Icon Development Solutions, Ellicott City, Md.).
(§1) Comparisons were made on the intent-to-treat population, defined as all randomly assigned subjects with at least one post-baseline assessment of the primary endpoint, using last-observation carried forward. The safety population included all randomized patients who received at least one dose of any medication after being randomized. An interim analysis was conducted at 8 weeks for administrative purposes by an independent statistical analysis group; blinding was retained for study investigators and study personnel with daily operational responsibility.
Gastrointestinal (GI) adverse events may limit adherence to GLP-1 therapies.

type 2 diabetic subjects [3] = assay: Phase 2 randomized, placebo-controlled 16-week trial of weekly, biweekly and monthly albiglutide: glycemic efficacy (A1C, FPG, weight); format: in vivo, human; conditions: for A1C change from baseline (mean) / FPG change from baseline (mean) / Subjects achieving A1C < 7.0% / A1C reduction compared with placebo (ANCOVA model) / FPG change from baseline compared with placebo: week 16; for HbA1c reduction in MET subjects: 16 weeks; for FPG reduction in background metformin (MET) subjects: after 16 weeks
From the text: Main outcome measure was change from baseline A1C, week 16 vs placebo.
Men and women of non-childbearing potential from 18-75 years of age were eligible for inclusion if diagnosed with type 2 diabetes ≧3 months before screening. Subjects were drug-naïve (diet & exercise) or treated with diet and exercise plus metformin as monotherapy stable for >3 months before prescreening (1 week prior to screening visit). […] Additional inclusion criteria included: BMI≧20 and ≦40 kg/m^2 and A1C at screening ≧7% and ≦10%.
A1C and fasting plasma glucose (FPG) measurements were performed at Screening, Baseline, and at Weeks 2 (FPG Only), 4, 5, 7, 8, 9, 12, 15, and 16.
The primary efficacy endpoint was change from baseline A1C at week 16 vs placebo across different doses within each schedule (weekly, biweekly, and monthly). The primary analysis was an ANCOVA model with main effects for treatment group and prior metformin therapy, adjusting for baseline A1C. Dose response was evaluated using contrasts within the ANCOVA model framework. Pairwise comparisons were performed in the same ANCOVA model. Secondary endpoints were analyzed similarly. Responder analysis and incidence of hypoglycemia were summarized by group statistics. […] Safety and tolerability data were collected categorically.
as §1
Patients were also assessed for reduction in fasting plasma glucose (FPG) and HbA1c reduction based on background metformin (MET) treatment.

[4] = 30 mg weekly sc, listed as albiglutide
[5] = 50 mg biweekly sc, listed as ALB
[6] = 50 mg biweekly sc, listed as albiglutide

In the case of “Albiglutide: Long-acting GLP-1 receptor agonist: two DPP-4-resistant human GLP-1 analogs (GLP-1(7-36)(A8G)) fused to human albumin; SEQ ID NO:1”, the “Subjects positive for anti-albiglutide antibodies” value ([1]; 8 subjects in placebo and albiglutide arms, incl. 1 on placebo and 2 positive at baseline, through week 27) is reported as 2.5%, the “Character of anti-albiglutide antibodies” value ([1]; antibody-positive subjects) is reported as “non-neutralizing, low-titer” and the Documented hypoglycemia (type 2 diabetic subjects [2]) is reported as 0-3.1%. The “Documented hypoglycemia (in words)” value (type 2 diabetic subjects [2]) was “not increased”, the “Injection site local skin reactions” value (type 2 diabetic subjects [2]) was 2.9-28.2% and the “A1C change from baseline (mean)” value (type 2 diabetic subjects [3]; 4 mg weekly sc) was −0.11%. For the same substance, the “FPG change from baseline (mean)” value (type 2 diabetic subjects [3]; 4 mg weekly sc) was -0.47 ± 3.1 mmol/L, the “Subjects achieving A1C < 7.0%” value (type 2 diabetic subjects [3]; 4 mg weekly sc) was 17.6% and the “A1C change from baseline (mean)” value (type 2 diabetic subjects [3]; 4 mg weekly sc, listed as ALB) was −0.1 ± 1.2%. The “A1C change from baseline (mean)” value (type 2 diabetic subjects [3]; 15 mg biweekly sc) was −0.56%, the “FPG change from baseline (mean)” value (type 2 diabetic subjects [3]; 15 mg biweekly sc) was -1.28 ± 2.4 mmol/L and the “Subjects achieving A1C < 7.0%” value (type 2 diabetic subjects [3]; 15 mg biweekly sc) was 26.7%. The “A1C change from baseline (mean)” value (type 2 diabetic subjects [3]; 15 mg biweekly sc, listed as ALB) was −0.6 ± 1.0%, the “A1C change from baseline (mean)” value (type 2 diabetic subjects [3]; 15 mg weekly sc) was −0.49% and the “FPG change from baseline (mean)” value (type 2 diabetic subjects [3]; 15 mg weekly sc) was -0.72 ± 1.7 mmol/L. The “A1C change from baseline (mean)” value (type 2 diabetic subjects [3]; 15 mg weekly sc, listed as ALB) was −0.5 ± 0.7%, the “A1C change from baseline (mean)” value (type 2 diabetic subjects [3]; 30 mg biweekly sc) was −0.79 ± % and the “FPG change from baseline (mean)” value (type 2 diabetic subjects [3]; 30 mg biweekly sc) was -1.58 ± 2.1 mmol/L. For the same substance, the “Subjects achieving A1C < 7.0%” value (type 2 diabetic subjects [3]; 30 mg biweekly sc) was 50.0%, the “A1C change from baseline (mean)” value (type 2 diabetic subjects [3]; 30 mg biweekly sc, listed as ALB) was −0.8 ± 1.0 % and the “MET patients achieving HbA1c <7%” value (type 2 diabetic subjects [3]; 30 mg weekly) was 43%. For the same substance, the “A1C change from baseline (mean)” value (type 2 diabetic subjects [3]; 30 mg weekly sc) was −0.87 ± %, the “A1C change from baseline (mean)” value (type 2 diabetic subjects [3]; 30 mg weekly sc, listed as ALB) was −0.9 ± 0.7 % and the “FPG change from baseline (mean)” value (type 2 diabetic subjects [3]; 30 mg weekly sc, listed as ALB) was -1.44 ± 2.0 mmol/L. The “Subjects achieving A1C < 7.0%” value (type 2 diabetic subjects [3]; 30 mg weekly sc, listed as ALB) was 51.7%, the “A1C change from baseline (mean)” value (type 2 diabetic subjects [3]; [4]) was −0.87% and −0.9% and the “FPG change from baseline (mean)” value (type 2 diabetic subjects [3]; [4]) was -1.44 mmol/L. For the same substance, the “Subjects achieving A1C < 7.0%” value (type 2 diabetic subjects [3]; [4]) was 52%, the “HbA1c reduction in MET subjects” value (type 2 diabetic subjects [3]; 30 mg weekly) was −0.78% and the “FPG reduction in background metformin (MET) subjects” value (type 2 diabetic subjects [3]; 30 mg weekly) was -1.26 mmol/L. The “A1C reduction compared with placebo (ANCOVA model)” value (type 2 diabetic subjects [3]; 30 mg weekly) was −0.62%, the “FPG change from baseline compared with placebo” value (type 2 diabetic subjects [3]; 30 mg weekly) was -1.38 mmol/L and the “MET patients achieving HbA1c <7%” value (type 2 diabetic subjects [3]; 50 mg biweekly) was 50%. For the same substance, the “A1C change from baseline (mean)” value (type 2 diabetic subjects [3]; 50 mg biweekly sc) was −0.79 ± %, the “A1C change from baseline (mean)” value (type 2 diabetic subjects [3]; [5]) was −0.8 ± 1.0 % and the “FPG change from baseline (mean)” value (type 2 diabetic subjects [3]; [5]) was -1.32 ± 3.5 mmol/L. For the same substance, the “Subjects achieving A1C < 7.0%” value (type 2 diabetic subjects [3]; [5]) was 52.9%, the “A1C change from baseline (mean)” value (type 2 diabetic subjects [3]; [6]) was −0.79% and −0.8% and the “FPG change from baseline (mean)” value (type 2 diabetic subjects [3]; [6]) was -1.32 mmol/L. For the same substance, the “Subjects achieving A1C < 7.0%” value (type 2 diabetic subjects [3]; [6]) was 53%, the “HbA1c reduction in MET subjects” value (type 2 diabetic subjects [3]; 50 mg biweekly) was −0.83% and the “FPG reduction in background metformin (MET) subjects” value (type 2 diabetic subjects [3]; 50 mg biweekly) was -2.10 mmol/L. The “A1C reduction compared with placebo (ANCOVA model)” value (type 2 diabetic subjects [3]; 50 mg biweekly) was −0.57%, the “FPG change from baseline compared with placebo” value (type 2 diabetic subjects [3]; 50 mg biweekly) was -1.16 mmol/L and the “A1C change from baseline (mean)” value (type 2 diabetic subjects [3]; 50 mg monthly sc) was −0.55%. The “FPG change from baseline (mean)” value (type 2 diabetic subjects [3]; 50 mg monthly sc) was -0.72 ± 2.8 mmol/L and the “Subjects achieving A1C < 7.0%” value (type 2 diabetic subjects [3]; 50 mg monthly sc) was 22.9%.

Source: patent US8748377B2, “Pharmaceutical compositions” (GlaxoSmithKline LLC, priority 2008, dated 2014)
